“Also recorded” adds a separate entry of the source.
What was measured:
HUVECs = HUVECs proliferation assay (CellTiter96 AQueous One); format: cell-based, human
Protocol: HUVECs were seeded onto a 96-well plate at 1×10^4 cells/well. […] Organic solvent concentration never exceeded 0.1% of total culture volume. […] 20 μl of Aqueous One reagent was added to the 100 μl medium in each well. The plates were incubated for 2 hours at 37° C. in a humidified incubator. Absorbance was recorded at 490 nm using a 96-well Bio Kinetics Reader EL340 (Bio-TEK, Winooski, Vt.). The data represent changes in percent absorbance of treated cultures compared with control cells. Three different experiments were carried out, and each point was determined in triplicate.

U251 human glioma cells = assay: DNA fragmentation and TUNEL assays in U251 cells; format: cell-based; conditions: HET0016
Protocol: DNA Fragmentation and TUNEL Assays: HET0016-treated cultures were washed twice with 1×PBS and incubated with lysis buffer [20 mM Tris-HCl, 10 mM EDTA, 0.3% Triton X-100]. Genomic DNA was extracted and separated on a 2% agarose gel. Separated DNA was visualized by staining gels with ethidium bromide (EtBr). […] Coverslips were washed 3× with PBS and air-dried. Samples were then fixed with a freshly prepared fixation solution (4% paraformaldehyde in PBS, pH 7.4) for 1 hr at room temperature, followed by incubation in fresh permeabilization solution (0.1% Triton X-100 in 0.1% sodium citrate) for 2 min on ice. Finally, samples were processed using in situ Cell Death Detection Kit, AP (Roche Diagnostics, Indianapolis, Ind.) according to the manufacturer's recommendations.

SAPK/JNK = assay: Western blot of phospho-SAPK/JNK in U251 cells; format: cell-based, human; conditions: 10 μM HET0016, 24 and 48 hr
Protocol: They were then pelleted by centrifugation at 1,000 g for 5 min at 4° C. Cells were lysed by adding RIPA buffer [20 mM HEPES (pH 7.4), 100 mM NaCl, 1% Nonidet P-40, 0.1% SDS, 1% deoxycholic acid, 10% glycerol, 1 mM EDTA, 1 mM NaVO3, 50 mM NaF, and Protease Inhibitors Set 1 (Calbiochem, La Jolla, Calif.)]. Plates were then scraped and cells collected in a 1.5-ml centrifuge tube, followed by incubation on ice for 30 min. Homogenates of the cell suspension were centrifuged for 10 min at 14,000 g and 4° C.; the pellets were discarded and protein concentrations in the supernatant determined by bicinchoninic acid (BCA) protein assay.
Typically, 20 μg of protein was separated on a 14% Tris-glycine gel (Invitrogen) and electroblotted on a PVDF membrane (Biotrace, Bothell, Wash.). Membranes were blocked for 1 h at room temperature with blocking buffer [0.2% I-Block reagent (Tropix, Bedford, Mass.), 0.1% Tween-20 in […]] before incubation with primary antibodies in blocking buffer (overnight at 4° C.). […] Both phospho-tyrosine (Y102) and phospho-serine/threonine-Pro MPM2 were detected using a 1:2000 dilution of the corresponding antibodies, whereas phospho-p44/p42MAPK and phospho-SAPK/JNK were detected using 1:1000 antibody dilutions. […]

9L gliosarcoma tumors = assay: Growth of 9L gliosarcoma brain tumors in rats (tumor volume); format: in vivo, rat
Protocol: Tumor Implantation: Before implantation, 90% confluent 9L cells were trypsinized and centrifuged. The cell pellet was resuspended in DMEM+10% FBS and counted using a hemocytometer. The concentration of the 9L cells was adjusted to 1×10^4 cells/5 μl of medium. p The brain tumors were seeded by injecting the 9L cell suspensions into the frontal cerebral cortex of Fisher 344 rats that were purchased from Charles River Laboratories (Wilmington, Mass.) as follows. The rats were anesthetized with ketamine (80 mg/Kg, im) and Xylazine (13 mg/Kg), the head was immobilized in a stereotactic frame (David Kopf Instruments, Tujunga, Calif.) and the skull was exposed. A small hole was drilled in the skull 2 mm lateral and 2.5 mm anterior of the bregma, and 5 μl of the 9L gliosarcoma cell suspension were injected 3.5 mm into to cerebral cortex over a 5 min period using a 10 μl Hamilton (#2701) syringe attached to a 26 gauge needle. The hole was sealed with bone wax and the incisions were closed. […] The brains were removed and stored in 10% formalin. […]
Images of H&E stained sections containing tumor were captured using a SONY CCD camera using 2× objective. Using the AIS Image Analysis System (Imaging Research, St. Catherine, ON, Canada) software, the area of tumor in each section was manually outlined and measured in mm^2. […]

`CCCCc1ccc(N=CNO)c(C)c1` [HET0016, N-hydroxy-N′-(4-butyl-2 methylphenyl) formamidine] was tested, and the “effect on the proliferative response of HUVECs to VEGF” value (HUVECs; 250 ng/ml VEGF + 10 μM HET0016, 24 hours) was “abolished; also recorded: blocked the known proliferative response to VEGF; also recorded: blocks the mitogenic activity of VEGF”, the “effect on basal proliferation rate of HUVECs” value (HUVECs; 10 μM HET0016) was “did not alter basal proliferation rate” and the “induction of apoptosis (DNA fragmentation and TUNEL)” value (U251 human glioma cells) was “does not induce apoptosis”. For the same compound, the “phosphorylation of SAPK/JNK” value (SAPK/JNK) was “specifically inhibited phosphorylation”, the “reduction of the volume of the brain tumor compared to control animals” value (9L gliosarcoma tumors; 9L cells in rat forebrain, HET0016 10 mg/kg/day sc for 15 days, b179 prints 1 mg/Kg/day, ip, about 2 weeks) was 80% and the “appearance of rats and tumor size at necropsy” value (9L gliosarcoma tumors; 17 days after implantation of the tumor) was “looked healthier; also recorded: much smaller tumor at necropsy”.

Reference: patent US20050124618A1, “Methods of modulating angiogenesis and cancer cell proliferation” (priority 2003, published 2005)
